Consider 4 compounds from ChEMBL document CHEMBL1145653, “The alkaloids of Corydalis meifolia” (J Nat Prod, 1983).

Assay [1] has as its system Ileum. The experiment in a line: Spasmolytic activity against guinea pig ileum assessed as inhibition of spasmogen-induced contraction at 10 ug. It counts as functional, Cavia porcellus.
In assay [2] the test system is Ileum. The experiment in a line: Spasmolytic activity against guinea pig ileum assessed as inhibition of spasmogen-induced contraction at 50 ug. It counts as functional, Cavia porcellus.

Consider `COc1cc2c(cc1OC)-c1c(C)c3ccc4c(c3c[n+]1CC2)OCO4.[Cl-]` [DEHYDROCAVIDINE], for which the results for the “inhibition (INH)” value with Ileum [1] and in the assay on Ileum [2] were 20% and 40%, respectively.

With `COc1cc2c(cc1OC)[C@@H]([C@H]1OC(=O)c3c1ccc1c3OCO1)N(C)CC2` [CORLUMINE], the “inhibition (INH)” value is listed as 0% in the assay on Ileum [1] and 50% in the assay with Ileum [2].

For `COc1cc2c(cc1OC)[C@]1([C@H](O)c3ccc4c(c3[C@@H]1O)OCO4)N(C)CC2` [YEMHUSOMINE], the “inhibition (INH)” value in the assay with Ileum [1] was found to be 17%; with Ileum [2] it was 52%.

For `COc1cc2c(cc1OC)[C@H]1[C@@H](C)c3ccc4c(c3CN1CC2)OCO4` [CAVIDINE], the “inhibition (INH)” value with Ileum [1] was found to be 84%; in the assay on Ileum [2], 100%.
